Molecules are shown by their SMILES. In brackets after ≈: the same amount, converted by molar mass.

The first series can be described thus: physchem. Conditions: octan-1-ol/water, pH 7.4.
Compound `CCC1(c2ccccc2)C(=O)NC(=O)NC1=O` [PHENOBARBITAL] showed a log distribution coefficient (logD) of 0.05.
Regarding `O=C(N[C@H]1CN2CCC1CC2)c1ccc(Cl)cc1` [PNU-282987], the log distribution coefficient (logD) was 0.6.
`c1ccc2ncccc2c1` [QUINOLINE] yielded a log distribution coefficient (logD) of 2.09.
Compound `COCCCOc1ccnc(C[S+]([O-])c2nc3ccccc3[nH]2)c1C` (stereo not drawn) [RABEPRAZOLE] registered a pH-dependent lipophilicity (logD) of -0.69.
Still for that read-out and setting: the figure for `C[C@@H]1NC(C)(C)CO[C@@]1(O)c1cccc(Cl)c1` [RADAFAXINE] is 1.69.
On the same count and under the same terms, the figure for `C=C(C)[C@H]1Cc2c(ccc3c2O[C@@H]2COc4cc(OC)c(OC)cc4[C@@H]2C3=O)O1` [ROTENONE] is 3.57; for `NC(=O)c1cn([C@@H]2O[C@H](CO)[C@@H](O)[C@H]2O)c2ncnc(N)c12` [SANGIVAMYCIN] it is -0.87.
On the same count and under the same terms, in the case of `NC(Cc1ccc(N(CCCl)CCCl)cc1)C(=O)O` (stereo not drawn) [SARCOLYSIN] it was 0.39; in that of `CC(C)CC(N(C)C)C1(c2ccc(Cl)cc2)CCC1` (stereo not drawn) [SIBUTRAMINE], 3.6.
As to `O=C(Oc1ccc(Br)cc1)N1CCN2CCC1CC2` [SSR180711], the logD worked out at 1.58.
Consider `CC(=O)O[C@H]1CC[C@]2(C=O)[C@H]3CC[C@]4(C)[C@@H](C5=CC(=O)OC5)CC[C@]4(O)[C@@H]3CC[C@]2(O)C1` [STROPHANTHIDIN ACETATE], for which the pH-dependent lipophilicity (logD) was 0.64.
Same read-out and setting: in the case of `CCN(CC)C(=O)N[C@H]1C[C@@H]2c3cccc4[nH]cc(c34)C[C@H]2N(C)C1` [TERGURIDE] it was 2.73; in that of `S=C(NC1CCCCC1)N1CCC(c2cnc[nH]2)CC1` [THIOPERAMIDE], 2.3; in that of `CCC(COC(=O)c1cc(OC)c(OC)c(OC)c1)(c1ccccc1)N(C)C` (stereo not drawn) [TRIMEBUTINE], 3.77.
The same measure, in the same setting: the figure for `CC(C)[C@H](N)C(=O)OCCOCn1cnc2c(=O)[nH]c(N)nc21` [VALACYCLOVIR] is -1.3; for `CN1CCN(C(=O)OC2c3nccnc3C(=O)N2c2ccc(Cl)cn2)CC1` (stereo not drawn) [ZOPICLONE] it is 1.1.

Still in this series, the particulars now being: octan-1-ol/water, pH 7.4, LogD7.4.
In the case of `NNCCc1ccccc1` [PHENELZINE], the pH-dependent lipophilicity (logD) is -0.01.
For `CN1C(=O)CC(c2ccccc2)C1=O` (stereo not drawn) [PHENSUXIMIDE], the pH-dependent lipophilicity (logD) was 0.68.
As for `CN(C)CCOc1ccccc1Cc1ccccc1` [PHENYLTOLOXAMINE], the logD worked out at 2.53.
Still for that read-out and setting: in the case of `COc1ccc(C(=O)NCc2cccnc2)cc1C(=O)NCc1cccnc1` [PICOTAMIDE] it was 1.23.
Still for that read-out and setting: in the case of `NS(=O)(=O)c1cc(C(=O)O)cc(N2CCCC2)c1Oc1ccccc1` [PIRETANIDE] it was -0.94.
As to `CCCN[C@H]1CCc2nc(N)sc2C1` [PRAMIPEXOLE], the logD worked out at 3.15.
The same measure, in the same setting: the figure for `O=C(C1CCCCC1)N1CC(=O)N2CCc3ccccc3C2C1` (stereo not drawn) [PRAZIQUANTEL] is 2.43; for `CCCN(CCC)S(=O)(=O)c1ccc(C(=O)O)cc1` [PROBENECID] it is 0.03; for `CCN(CC)CCOC(=O)c1ccc(N)cc1` [PROCAINE] it is 0.
Same read-out and setting: the figure for `CC(C)[N+](C)(CCOC(=O)C1c2ccccc2Oc2ccccc21)C(C)C` [PROPANTHELINE] is 0.2; for `O=c1c(O)cccc2cc(O)c(O)c(O)c12` [PURPUROGALLIN] it is 2.03.
Turning to `Cc1ncc(CO)c(CO)c1O` [PYRIDOXINE], the logD is -0.58.
For the compound `O=C(Nc1nnn[nH]1)c1cc(Oc2ccccc2)c2ccccn2c1=O` [QUINOTOLAST], the logD stood at 0.67.
Still for that read-out and setting: in the case of `CCC(=O)NCC[C@@H]1CCc2ccc3c(c21)CCO3` [RAMELTEON] it was 2.57; in that of `NC(Cc1cc(I)c(Oc2ccc(O)c(I)c2)c(I)c1)C(=O)O` (stereo not drawn) [RATHYRONINE], 0.97; in that of `Cc1ccc(COC(=O)N2CC[C@H](CNc3ncccn3)[C@H](F)C2)cc1` [RISLENEMDAZ], 3.21.
In turn, `CC(C)c1nc(CN(C)C(=O)N[C@H](C(=O)N[C@@H](Cc2ccccc2)C[C@H](O)[C@H](Cc2ccccc2)NC(=O)OCc2cncs2)C(C)C)cs1` [RITONAVIR] returned a pH-dependent lipophilicity (logD) of 4.3.
On the same count and under the same terms, in the case of `CC[C@H]1OC(=O)[C@H](C)[C@@H](O[C@H]2C[C@@](C)(OC)[C@@H](O)[C@H](C)O2)[C@H](C)[C@@H](O[C@@H]2O[C@H](C)C[C@H](N(C)C)[C@H]2O)[C@](C)(O)C[C@@H](C)/C(=N\OCOCCOC)[C@H](C)[C@@H](O)[C@]1(C)O` [ROXITHROMYCIN] it was 1.8; in that of `NC(=O)c1ccccc1O` [SALICYLAMIDE], 1.09.
Compound `O=C(O)c1ccc2c(c1)nc(Nc1cccc(Cl)c1)c1ccncc12` [SILMITASERTIB] displayed a logD of 1.29.
Still for that read-out and setting: in the case of `C[C@@H]1CN(c2c(F)c(N)c3c(=O)c(C(=O)O)cn(C4CC4)c3c2F)C[C@H](C)N1` [SPARFLOXACIN] it was -0.15.
Consider `COc1ncnc(NS(=O)(=O)c2ccc(N)cc2)c1OC` [SULFADOXINE], for which the pH-dependent lipophilicity (logD) is -0.73.
Take `Cc1ccnc(NS(=O)(=O)c2ccc(N)cc2)n1` [SULFAMERAZINE]: the logD is -0.51.
`COc1cc2c(N3CCN(C(=O)Nc4ccc(OC(C)C)cc4)CC3)ncnc2cc1OCCCN1CCCCC1` [TANDUTINIB] had a pH-dependent lipophilicity (logD) of 2.6.
Same read-out and setting: the figure for `CC(C)NCC(O)COc1nccs1` (stereo not drawn) [TAZOLOL] is -0.97; for `Cn1nnc2c(C(N)=O)ncn2c1=O` [TEMOZOLOMIDE] it is -1.08; for `CN(C/C=C/C#CC(C)(C)C)Cc1cccc2ccccc12` [TERBINAFINE] it is 2.83.
The same measure, in the same setting: the figure for `CCCCNc1ccc(C(=O)OCCN(C)C)cc1` [TETRACAINE] is 2.11; for `c1ccc2[nH]c(-c3cscn3)nc2c1` [THIABENDAZOLE] it is 2.35; for `Clc1ccccc1CN1CCc2sccc2C1` [TICLOPIDINE] it is 3.46.
On the same count and under the same terms, the figure for `Cc1cccc(C)c1NC(=O)C(C)N` (stereo not drawn) [TOCAINIDE] is -0.15.
`Cc1ccc(C(=O)c2cc(O)c(O)c([N+](=O)[O-])c2)cc1` [TOLCAPONE] displayed a logD of 0.74.
For the compound `Cc1ccc(C(=O)C(C)CN2CCCCC2)cc1` (stereo not drawn) [TOLPERISONE], the log distribution coefficient (logD) is 1.65.
Same read-out and setting: in the case of `Cc1cccc(Nc2ccncc2S(=O)(=O)NC(=O)NC(C)C)c1` [TORSEMIDE] it was 0.3; in that of `OC(CCN1CCCCC1)(c1ccccc1)C1CCCCC1` (stereo not drawn) [TRIHEXYPHENIDYL], 2.68.
Still for that read-out and setting: in the case of `COc1cc(C(=O)NCc2ccc(OCCN(C)C)cc2)cc(OC)c1OC` [TRIMETHOBENZAMIDE] it was 0.74.
The compound `Cc1cc2cc3c(C)cc(=O)oc3c(C)c2o1` [TRIOXSALEN] showed a logD of 3.47.
The same measure, in the same setting: in the case of `CN(C)CCN(Cc1ccccc1)c1ccccn1` [TRIPELENNAMINE] it was 1.28; in that of `N[C@@H](Cc1c[nH]c2ccccc12)C(=O)O` [TRYPTOPHAN], -1.08; in that of `COC[C@@H](c1ccc(C(F)(F)F)cc1)N1CCN(C2(C)CCN(C(=O)c3c(C)ncnc3C)CC2)C[C@@H]1C` [VICRIVIROC], 2.7.
The same measure, in the same setting: in the case of `CS(=O)(=O)c1ccc(C(=O)Nc2ccc(Cl)c(-c3ccccn3)c2)c(Cl)c1` [VISMODEGIB] it was 2.84.
Still for that read-out and setting: the figure for `Fc1ccc(-c2ncn(C3CCNCC3)c2-c2ccncc2)cc1` [VK-19911] is 0.3; for `COc1cccc([C@H](O)C2CCN(CCc3ccc(F)cc3)CC2)c1OC` [VOLINANSERIN] it is 1.7; for `COC(=O)[C@@H]1[C@H]2C[C@H]3c4[nH]c5ccccc5c4CCN3C[C@@H]2CC[C@@H]1O` [YOHIMBINE] it is 1.65.
In the case of `NS(=O)(=O)Cc1noc2ccccc12` [ZONISAMIDE], the log distribution coefficient (logD) was determined as 0.55.

The next series is described as follows: physchem. Conditions: pH 7.4 buffer.
Regarding `c1ccc2oc(-c3cncc(-c4cnn(C5CCNCC5)c4)c3)nc2c1`, the thermodynamic solubility turned out to be 87.1 µM (≈ 30.1 µg/mL).
The compound `O=C(O)CCC[C@@H]1c2ccccc2C[C@H]1NC(=O)c1cc2cc(F)ccc2[nH]1` gave a thermodynamic solubility of 85.1 µM (≈ 32.4 µg/mL).
`CNC(=O)[C@@H](NC(=O)[C@H](CC(C)C)[C@@H](Sc1ccccc1)C(=O)NO)C(C)(C)C` had a thermodynamic solubility of 83.2 µM (≈ 35.2 µg/mL).
Same read-out and setting: the figure for `O=C(c1ccccc1)N1CCc2ccccc21` is 91.2 µM (≈ 20.4 µg/mL); for `COc1cc(S(N)(=O)=O)c(OC)cc1N` it is 93.3 µM (≈ 21.7 µg/mL); for `C[C@@H](Cc1ccccc1)Oc1cc(OC2CCOCC2)cc(C(=O)Nc2ccc(C(=O)O)cn2)c1` it is 105 µM (≈ 49.9 µg/mL).
Still for that read-out and setting: in the case of `COc1cc(OC2CNC2)ccc1Nc1ncc(Cl)c(-c2cnc3ccccn23)n1` it was 81.3 µM (≈ 34.4 µg/mL); in that of `COc1ccc(Nc2ncnc3cccc(OC4CCN(C)CC4)c23)cc1Cl`, 87.1 µM (≈ 34.7 µg/mL); in that of `CN(C(=O)Cc1ccc(-n2cnnn2)cc1)[C@@H]1CCN(Cc2ccc(C(F)(F)F)nc2)C[C@@H]1F`, 95.5 µM (≈ 45.6 µg/mL).
The compound `N#CC1(NC(=O)[C@@H]2CCCC[C@H]2C(=O)N2CCN(c3nc(-c4ccccc4)cs3)CC2)CC1` returned a thermodynamic solubility of 95.5 µM (≈ 44.3 µg/mL).
Same read-out and setting: the figure for `O=C(Cc1cc(Nc2ncnc3cc(OCCCN4CCC[C@@H]4CO)ccc23)[nH]n1)Nc1cccc(F)c1` is 102 µM (≈ 53.2 µg/mL).
`CCN(CCO)CCCOc1ccc2c(Nc3cc(CC(=O)Nc4cccc(F)c4F)[nH]n3)ncnc2c1`: the solubility (thermodynamic) was found to be 93.3 µM (≈ 49 µg/mL).
Still for that read-out and setting: in the case of `CC(C)c1ccc2[nH]c3c(c2c1)CN(C(=O)[C@@H]1CCCC[C@H]1C(=O)NC1(C#N)CC1)CC3` it was 83.2 µM (≈ 36 µg/mL); in that of `CN(C)C(=O)c1cc(-c2nc(N3CCOCC3)cc(C3(S(C)(=O)=O)CC3)n2)c2cc[nH]c2c1`, 100 µM (≈ 47 µg/mL).
The same measure, in the same setting: in the case of `Cc1cc(C)cc(-c2[nH]c3sc(C(C)(C)C(=O)N4C5CCC4CC5)cc3c2CCN2CCC(C(=O)N3CCCC(O)C3)CC2)c1` (stereo not drawn) it was 87.1 µM (≈ 55 µg/mL); in that of `COc1cc2ncnc(Nc3cccc(Cl)c3F)c2cc1CN(C)C1CCNC1=O` (stereo not drawn), 89.1 µM (≈ 38.3 µg/mL).
For the compound `CC(C)Oc1cc(O[C@@H](C)c2ccccc2)cc(C(=O)Nc2ccc(C(=O)O)cn2)c1`, the solubility (thermodynamic) amounted to 89.1 µM (≈ 37.5 µg/mL).
Still for that read-out and setting: the figure for `c1ccc(CSc2ncnc3[nH]cnc23)cc1` is 95.5 µM (≈ 23.1 µg/mL).
The same measure, in the same setting: in the case of `Cc1ccc(/C=C2\SC(=O)NC2=O)cc1` it was 85.1 µM (≈ 18.7 µg/mL); in that of `CN(C)CCNS(=O)(=O)c1ccc(Nc2nccc(-c3cnc4cccnn34)n2)cc1`, 93.3 µM (≈ 40.9 µg/mL); in that of `Cn1nc(C(C)(C)C)cc1C(=O)N[C@@H](Cc1cccc(Cl)c1)C(=O)NCC#N`, 93.3 µM (≈ 37.5 µg/mL).
Still for that read-out and setting: the figure for `CCOC(=O)c1cc2ccccc2[nH]1` is 89.1 µM (≈ 16.9 µg/mL).

As a reminder, the logD is lipophilicity at a set pH, counting ionised and neutral species. The low end stands for lower lipophilicity, the high end for higher lipophilicity. For orientation: thermodynamic solubility means the concentration in solution at equilibrium with solid.

These data come from ChEMBL document CHEMBL3301361, “Experimental in vitro DMPK and physicochemical data on a set of publicly disclosed compounds”.
